In patent US9550811B2, “Peptide scaffold design” (BIONOR IMMUNO AS, priority 2010, dated 2017):
Read-outs that look alike come from different tables or passages of the source. Where no end group is shown, it is not given here. [ ]: non-standard residue; d: D form. Nle = CCCC[C@H](N)C(=O)O

How the values were obtained:
DC-cells = assay: Cell penetration assay: staining for biotinylated peptides, dendritic cells gated as CD11c+; format: cell-based, human; conditions: low concentration of peptides (208 uM)
Description: A set of peptides were biotinylated on N-terminal, and different combinations of aminoacids, with respect to length and type, were added to the sequence box X^1, X^3 and X^4 in the peptides as illustrated by the diagram below. The peptides were tested on cells grown from one individual blood donor.
96-well U-bottom polystyrene plates (NUNC, cat no: 163320) were used for staining of human PBMCs. Briefly, 8 ul of N- or C-terminally biotinylated peptides according to table 1 or table 2 (i.e. 5 mM, 2.5 mM & 1.25 mM tested for each peptide) were incubated at 37° C. for 2 h with 40 ul of PBMC (12.5×10^6 cells/ml) from blood donors. Cells were then washed 3× with 150 ul of Cellwash (BD, cat no: 349524), followed by resuspension of each cell pellet with 100 ul of Trypsin-EDTA (Sigma, cat no: T4424), then incubated at 37° C. for 5 min. Trypsinated cells were then washed 3× with 150 ul of Cellwash (BD, cat no: 349524), followed by resuspension with BD Cytofix/Cytoperm™ plus (BD, cat no: 554715), then incubated at 4° C. for 20 min according to manufacturer. Cells were then washed 2× with 150 ul PermWash (BD, cat no: 554715). Cells were then stained with Streptavidin-APC (BD, cat no: 554067) & Anti-hCD11c (eBioscience, cat no: 12-0116) according to manufacturer at 4° C. for 30 min aiming to visualize biotinylated peptides & dendritic cells, respectively. Cells were then washed 3× with 150 ul PermWash, followed by resuspension in staining buffer (BD, cat no: 554656) before flow cytometry. Dendritic cells were gated as CD11c+ events outside lymphocyte region (i.e. higher FSC & SSC signals than lymphocytes). 200 000 total cells were acquired on a FACSCanto II flow cytometer with HTS loader, and histograms for both total cells & dendritic cells with respect to peptide-fluorescence (i.e. GeoMean) were prepared.
As shown in table 4 the peptides according to the invention had the ability to allocate through the cell membrane.

human PBMCs = format: cell-based; conditions: for Geomean value (peptide-fluorescence): With Cytofix/Cytoperm and trypsination, BC20

Sequence | Results on DC-cells (geomean peptide-fluorescence) (DC-cells; BC 16) | Results on DC-cells (geomean peptide-fluorescence) (DC-cells; BC43) | other results
BRGLEPLVIAGILARRGSLVGLLHIVL [BI100260] | 47846 | – | –
BRGSDPLVVAASIVRRASIVGILHLIL [BI100260b] | 37702 | – | –
BRGYIPLVGAPLGRRVARALAHGVRV [SP7] | 16064 | 21414 | Geomean value (peptide-fluorescence) (human PBMCs; concentration 104 μM): 2766; Geomean value (peptide-fluorescence) (human PBMCs; concentration 208 μM): 10481; Geomean value (peptide-fluorescence) (human PBMCs; concentration 417 μM): 30503; Geomean value (peptide-fluorescence) (human PBMCs; concentration 833 μM): 47922
BRGYIPLVGAPLGRRVARALAHGVRV [SP7_c] | 20041 | 11832 | –
BRIAYERMCNILLBRGKFQTAAQRA [190b] | 12391 | 20444 | –
BRLIFLARSALILBGRSALILRGSVAHK [120b] | 44185 | – | –
BRLIFLARSALIVRGSVAHKS [100-12] | 24792 | 45622 | –
BRRLFFKTITRLFBHGLRRLLSTEGVPNSZ [BI10026] | 65196 | 43536 | –
BRTAYERZCNILBRGRFQTVVQBA [compound 17] | – | – | Intracellular staining, median (human PBMCs): 20.77
BRTAYERZCNILBRGRFQTVVQBA [compound 190] | 12906 | – | –
EDLIFLARSALILRGSVAHKS [100-22b] | 43537 | 28780 | –
EEGYIPLVGAPLGEEVARALAHGVRV [SP14] | 3704 | 1629 | Geomean value (peptide-fluorescence) (human PBMCs; concentration 104 μM): 62; Geomean value (peptide-fluorescence) (human PBMCs; concentration 208 μM): 392; Geomean value (peptide-fluorescence) (human PBMCs; concentration 417 μM): 682; Geomean value (peptide-fluorescence) (human PBMCs; concentration 833 μM): 1059
EEGYIPLVGAPLGRRVARALAHGVRV [SP16] | 5730 | 3656 | Geomean value (peptide-fluorescence) (human PBMCs; concentration 104 μM): 505; Geomean value (peptide-fluorescence) (human PBMCs; concentration 208 μM): 1260; Geomean value (peptide-fluorescence) (human PBMCs; concentration 417 μM): 2240; Geomean value (peptide-fluorescence) (human PBMCs; concentration 833 μM): 4558
GGGQIVGGVYLLPRRGPRLGVRATR [310-11n] | 5436 | – | –
GGGYIPLVGAPLGGGVARALAHGVRV [SP15] | 5076 | 2539 | Geomean value (peptide-fluorescence) (human PBMCs; concentration 104 μM): 600; Geomean value (peptide-fluorescence) (human PBMCs; concentration 208 μM): 848; Geomean value (peptide-fluorescence) (human PBMCs; concentration 417 μM): 477; Geomean value (peptide-fluorescence) (human PBMCs; concentration 833 μM): 1810
GYIPLVGAPLGGVARALAHGVRV [51n] | 5551 | 7721 | –
GYIPLVGAPLGGVARALAHGVRV [SP1_C] (GYIPLVGAPLGGVARALAHGVRV-NH2) | 9234 | – | –
IAYERMCNILKGKFQTAAQRA [190n] | 18616 | 23383 | –
KALGPAATLEEMMTACQGVG [N13] | 7982 | 5953 | –
KKGYIPLVGAPLGKKVARALAHGVRV [SP11] | 6490 | 13230 | Geomean value (peptide-fluorescence) (human PBMCs; concentration 104 μM): 601; Geomean value (peptide-fluorescence) (human PBMCs; concentration 208 μM): 1277; Geomean value (peptide-fluorescence) (human PBMCs; concentration 417 μM): 3562; Geomean value (peptide-fluorescence) (human PBMCs; concentration 833 μM): 8262
KKGYIPLVGAPLGKKVARALAHGVRV [SP11_c] (KKGYIPLVGAPLGKKVARALAHGVRV-NH2) | 5371 | 7878 | –
LFFKCIYRLFKHGLKRGPSTEGVPESM [BI10024b] | 26892 | 13002 | –
PEVIPMFSALSEGATPQDLNTMLN [N10] | 4597 | – | –
RFIIPXFTALSGGRRALLYGATPYAIG (RFIIP[Nle]FTALSGGRRALLYGATPYAIG) [V10] | 45430 | – | –
RGYIPLVGAPLGKKKVARALAHGVRV [SP9] | 8356 | 10084 | Geomean value (peptide-fluorescence) (human PBMCs; concentration 104 μM): 1268; Geomean value (peptide-fluorescence) (human PBMCs; concentration 208 μM): 2945; Geomean value (peptide-fluorescence) (human PBMCs; concentration 417 μM): 6060; Geomean value (peptide-fluorescence) (human PBMCs; concentration 833 μM): 11344
RGYIPLVGAPLGKKKVARALAHGVRV [SP9_c] (RGYIPLVGAPLGKKKVARALAHGVRV-NH2) | 6180 | 7758 | –
RGYIPLVGAPLGRRRVARALAHGVRV [SP4_c] | 20673 | 30786 | –
RGYIPLVGAPLGRRRVARALAHGVRV [SP10_c] (RGYIPLVGAPLGRRRVARALAHGVRV-NH2) | 6904 | – | –

Sequence | Results on DC-cells (geomean peptide-fluorescence) (DC-cells; BC 16) | Results on DC-cells (geomean peptide-fluorescence) (DC-cells; BC43) | other results
RGYIPLVGAPLGRRVARALAHGVRV [SP3_c] (RGYIPLVGAPLGRRVARALAHGVRV-NH2) | 18505 | 26308 | –
RGYIPLVGAPLGRRVARALAHGVRV [SP24] (RGYIPLVGAPLGRRVARALAHGVRV-NH2) | 18181 | 63639 | –
RNIVPZVVTARRNIVPZVVTAB [BI-050sc5] | 13648 | 15549 | –
RNLVPMVATVBRRNLVPMVATVB [BI-050sc2] | 6019 | 11584 | –
RNLVPMVATVBRRNLVPMVATVB [compound 18] | – | – | Intracellular staining, median (human PBMCs): 3.86
RNLVPMVATVRRNLVPMVATVB [BI-050sc1] | 6056 | 6160 | –
RRGGGQIVGGVYLLPRRGPRLGVRATR [310-11-n-sc] | 25236 | – | –
RRGYIPLVGAPLGBGRVARALAHGVRV [SP2_c] | 323 | 13341 | –
RRGYIPLVGAPLGLRRVARALAHGVRV [SP17_c] | 11830 | – | –
RRGYIPLVGAPLGRRRVARALAHGVRV [SP6_c] (RRGYIPLVGAPLGRRRVARALAHGVRV-NH2) | 17964 | 38487 | –
RRGYIPLVGAPLGRRVARALAHGVRV [SP5_c] (RRGYIPLVGAPLGRRVARALAHGVRV-NH2) | 16908 | 24403 | –
RRNYVTGNIPGBRGITFSIFLIVS [SP61_2] | 128330 | 150491 | –
RRRGYIPLVGAPLGBRVARALAHGVRV [SP8_c] | 9159 | 23763 | –
RRVTGNIPGSTYSGBRGITFSIYLIVS [SP25] | 11552 | – | –
SAYERMCNILKGKFQTAAQRAMM [18b] | 29740 | 33597 | –
WGYIPLVGAPLGRRVARALAHGVRV [SP12_c] (WGYIPLVGAPLGRRVARALAHGVRV-NH2) | 37100 | 43386 | –
WWGGGQIVGGVYLLPRRGPRLGVRAT [SP11b_1] | 64047 | – | –
WWGYIPLVGAPLGRRRVARALAHGVRV [SP22] | 61597 | 18624 | –
WWGYIPLVGAPLGRRVARALAHGVRV [SP13_c] (WWGYIPLVGAPLGRRVARALAHGVRV-NH2) | – | 60307 | –
WWGYIPLVGAPLGRRVARALAHGVRV [SP21] (WWGYIPLVGAPLGRRVARALAHGVRV-NH2) | 26525 | 4294 | –
WWGYIPLVGAPLGRVARALAHGVRV [SP23] | 17084 | 12801 | –
WWGYLPAVGAPIRRVIRVIAHGLRL [SP51_1*] | 66582 | – | –
WWIRNLGRVIETLTRRLZGYIPLIGA [SP42_1] | 73973 | – | –
WWNYVTGNIPGBRGITFSIFLIVS [SP61_3] | 47182 | 36803 | –
WWNYVTGNIPGRRGITFSIFLIVS [SP61_4] | 12829 | – | –
WWSRNLGKVIDTLTCRRLMGYIPLVGA [SP42b_1] | 17628 | – | –
YGRKKRRQRRR [compound 4, Positive control (tat), reference compound] | – | – | Intracellular staining, median (human PBMCs): 4.43
